# Key:
# [1] = test system: mature adipocytes (3T3-L1 cells); experiment: Synergistic action of 4-hydroxyderricin and insulin to enhance glucose uptake; format: cell-based
# Description: As the evaluation of synergistic action of 4-hydroxyderricin prepared in Example 2 and a low-concentration insulin to enhance glucose uptake, the amount of 2-deoxyglucose uptake into mature adipocytes during the stimulation with the sample was determined partly in accordance with the method described in Example 83.
# The mature adipocytes were prepared according to the method described in item (1) of Example 83.
# After the termination of the culture, the medium was removed, and the cells were washed twice with a 0.1% (w/v) bovine serum albumin (manufactured by Sigma, A8022)-containing Dulbecco's modified Eagle's medium. Thereafter, 1 mL of the same medium containing a solution of 4-hydroxyderricin in dimethyl sulfoxide having a final concentration of 5 μM was added thereto. The cells were cultured overnight at 37° C. in the presence of 5% carbon dioxide gas. Here, a group without addition of 4-hydroxyderricin was set as a negative control. After the overnight culture, the cells were washed twice with a HEPES buffered saline (140 mM NaCl, 5 mM KCl, 2.5 mM MgSO4, 1 mM CaCl2, 20 mM HEPES-Na (pH 7.4)). The amount 0.9 mL of the same buffer containing 4-hydroxyderricin having a final concentration of 5 μM was added thereto. […] Thereafter, 2-deoxy-[1,2-^3H(N)]-glucose subjected to uptake into the adipocytes was determined in the same manner as the method described in item (2) of Example 83.
# [2] = test system: mature adipocytes (3T3-L1 cells); experiment: Glucose uptake enhancement inhibited by cytochalasin B; format: cell-based
# Description: The influence of cytochalasin B on 2-deoxyglucose uptake into matured adipocytes during the stimulation with the sample in the adipocytes was tested in accordance with the method shown in Example 83 on whether or not the enhancing action of 4-hydroxyderricin on glucose uptake shown in Example 83 is inhibited by cytochalasin B, which is an inhibitor of a glucose transporter.
# Specifically, as a sample, a group with addition of a dimethyl sulfoxide solution of 4-hydroxyderricin so as to have a final concentration of 7.8 μM was set. Here, there were set a group without addition of the sample as a negative control and a group with addition of insulin so as to have a final concentration of 1 μg/mL as a positive control. Furthermore, there was set a group with addition of cytochalasin B (manufactured by nacalai tesque, 10435-81) to each group so as to have a final concentration of 40 μM in the same time as the time of addition of insulin. Thereafter, 2-deoxy-[1,2-^3H(N)]-glucose subjected to uptake into the adipocytes was determined in the same manner.
# [3] = test system: insulin-resistant mature adipocytes; experiment: Enhancing action on glucose uptake into insulin-resistant (TNF-α treated) mature adipocytes; format: cell-based; details: 4-hydroxyderricin 30 μM; mature adipocytes treated with mouse-derived TNF-α 10 or 20 ng/mL
# Description: It is said that tumor necrosis factor a (TNF-α) is deeply involved in insulin resistance, and it has been known that a signal from an insulin receptor is inhibited by treating mature adipocytes with TNF-α, so that a reaction of glucose uptake is inhibited by insulin stimulation (Proc. Natl. Acad. Sci. USA, vol. 91, p 4854-4858 (1994)). The enhancing action by 4-hydroxyderricin on glucose uptake into mature adipocytes in which insulin resistance was induced by TNF-α was evaluated.
# The induction of differentiation into mature adipocytes was carried out in the same manner as in the method described in Example 83, except that after preparation of the mature adipocytes, in order to induce insulin resistance in these mature adipocytes, mouse-derived TNF-α (manufactured by Cosmobio, 3410) was added to the medium so as to have a final concentration of 10 ng/mL or 20 ng/mL, and the adipocytes were cultured for additional 2 days. […]
# The enhancing action on glucose uptake was evaluated in the same manner as in the method described in Example 83. For each of the cells prepared in item (1) of Example 95 mentioned above, there were set a group containing 4-hydroxyderricin at a final concentration of 30 μM, a group without addition of the sample as a negative control, and a group with treatment with insulin, and the radioactivity of each group was determined. […]
# [4] = test system: KK-Ay mice; experiment: Glucose tolerance test, xanthoangelol; format: in vivo; details: female KK-Ay mice, 200 mg/kg oral once a day
# Description: Amelioration effects for glucose tolerance of xanthoangelol were examined using female 12-week old KK-Ay mice. Xanthoangelol which was previously suspended or dissolved in an olive oil in a concentration of 4% (w/v) was forcibly orally administered to a group to be administered with xanthoangelol at 200 mg/kg once a day for consecutive days. An olive oil was administered to the mice in the control group at 5 mL/kg in the same manner. The mice were fasted over one night spanning the sixteenth day to the seventeenth day from administration, and the glucose tolerance test was carried out in the same manner as in Example 91.
Compound,"2-deoxy-[1,2-3H(N)]-glucose uptake on addition simultaneously with insulin ([1]; 4-hydroxyderricin 5 μM + insulin 0.01 μg/mL, versus each alone)","2-deoxy-[1,2-3H(N)]-glucose uptake ([1]; 4-hydroxyderricin 5 μM alone, compared to the negative control)","2-deoxy-[1,2-3H(N)]-glucose uptake ([2]; 4-hydroxyderricin 7.8 μM, compared to the negative control)","2-deoxy-[1,2-3H(N)]-glucose uptake on addition of cytochalasin B ([2]; cytochalasin B 40 μM added to the 4-hydroxyderricin 7.8 μM, insulin 1 μg/mL and negative control groups)","enhancing action on glucose uptake, increase without TNF-α defined as 100% [3]",action on the elevation in the blood glucose level after the glucose tolerance (in words) [4],"Blood Glucose Level, Before Glucose Tolerance ([4]; seventeenth day, fasted) [mg/dL]","Blood Glucose Level, 30 Minutes After Tolerance ([4]; seventeenth day, fasted, glucose 1 g/kg i.p.) [mg/dL]"
"COc1ccc(C(=O)/C=C/c2ccc(O)cc2)c(O)c1CC=C(C)C [4-Hydroxyderricin, 4,2′-Dihydroxy-3′-prenyl-4′-methoxychalcone]",synergistically increasing the enhancing activity on glucose uptake,"enhancement of 2-deoxy-[1,2-^3H(N)]-glucose uptake","enhancement of 2-deoxy-[1,2-^3H(N)]-glucose uptake",almost completely inhibited,around 80%,,,
"CC(C)=CCC/C(C)=C/Cc1c(O)ccc(C(=O)/C=C/c2ccc(O)cc2)c1O [Xanthoangelol, 4,2′,4′-Trihydroxy-3′-geranylchalcone]",,,,,,suppressive action,106 ± 7,234 ± 15

# Reference: patent US20070092551A1, “Therapeutic agent” (TAKARA BIO INC., priority 2003, published 2007)
